Patent publication US20260015387A1, “MITOCHONDRIAL ANTIOXIDANT PEPTIDES” (priority 2022, published 2026)
Read-outs that look alike come from different tables or passages of the source. Square brackets hold non-standard residues; d marks the D form. Dmt = Cc1cc(O)cc(C)c1C[C@H](N)C(=O)O

Experiments:
cardiolipin = experiment: Cardiolipin binding assay (cytochrome c reduction by ascorbate); conditions: compared to SS31 (FIG. 18)
Text: Cardiolipin binds to cytochrome c, preventing it from being reduced by ascorbate. When the peptide binds cardiolipin, cytochrome c is free to be reduced by ascorbate.

[1] = Hydroxyl radical scavenging measured by EPR; conditions: DMPO trap, compared to the SS-31 peptide (FIG. 7)
Experimental: Hydroxyl radical scavenging activity of peptides measured by electron paramagnetic resonance (EPR). Hydroxyl radical was generated by a reaction of 0.8 mM FeSO4, with 0.8-mM H2O2, pH 7.0 (250 μL). The hydroxyl radicals were trapped with 5,5-dimethyl-1-pyrroline-N-oxide (DMPO) prior to obtaining spectra.

[2] = DPPH antioxidant activity (radical quenching); conditions: compared to the SS-31 peptide (FIG. 3)
Experimental: Experiments were performed to determine DPPH antioxidant activity. Radical concentration of DPPH was determined after reacting with varying concentrations of peptide. DPPH is an organic radical with a peak ABS at 525 nm.

[3] = system: Human HMESO malignant mesothelioma cells; experiment: ROS glow assay (cellular H2O2 levels); format: cell-based; conditions: 250 mM peptide, 50 μM menadione, 4 hours; compared to the SS-31 peptide (FIG. 8)
Experimental: An ROS glow assay was also performed. The assay measures the levels of H2O2 after injury to the cell. Human HMESO malignant mesothelioma cells were incubated with […] of WT, 2-TH or His compound with the addition 50 μM menadione and the H2O2 substrate for 4 hours (in duplicate). The reaction was quenched with addition of the H2O2 detection substrate. Luminescence levels were measured in a plate reader after 30 minutes of incubation.

16HBE41o-cells = format: cell-based; conditions: for Protection against HOCl-mediated cell death: cells treated with 200 μM HOCl, MTT assay
Experimental: 16HBE41o-cells were treated with 200 μM of HOCl for 60 min in PBS with or without increasing concentrations of peptides. Cells were washed and then placed back in media and cell viability was assess at 24 hours using the MTT assay. % Protection was determined by normalizing data to cell viability with and without oxidant.
An HOCl protection assay using 16HBE41o-cells was performed. This assay measured protection against cell death using HOCl as the oxidant. RH8=2TH peptide and RH9=His peptide. […] For this assay, 16HBE41o-cells were treated with 200 μM of HOCl for 60 minutes in PBS with or without increasing concentrations of test compounds. Cells were washed and then placed back in media and cell viability was assess at 24 hours using the MTT assay. % Protection was determined by normalizing data to cell viability with and without oxidant. Data curves were generated using Prism 8 software (GraphPad) for 50% effective concentration (EC50) determinations and their respective 95% confidence intervals.

[4] = In vitro antioxidant capacity studies; conditions: in vitro data
Text: Various in vitro antioxidant capacity studies and some cell-based protection assays have been performed. […] This is especially true for HOCl-mediated injury as illustrated in FIG. 9.

[5] = system: cellular reactive oxygen species; conditions: ROS caused by 1-butyl hydroperoxide; cited from earlier work
[6] = ABTS radical quenching assay; conditions: FIGS. 4-6
Experimental: ABTS assays were also performed. ABTS is a radical cation that is blue in color and absorbs light at 734 nm. 7 mM AzBTS was mixed in water with 2.45 mM potassium persulfate and left 16 hrs in the dark at rt to oxidize. […] The ABTS solution was diluted to an absorbance of ˜0.7 at 734 nm. Samples were assayed with ABTS: 990 μL ABTS solution+10 μL sample. Stocks of peptides were made with concentrations in the range of 0.1 mM to 3.2 mM. This assay may be a better choice than DPPH if there is less steric hindrance. FIGS. 4-6 show the results of these experiments.

[7] = after global ischemia; cited from earlier work

Row | Molecule | Binding to cardiolipin (CL) (cardiolipin) | Scavenging of the hydroxyl radical [1] | Scavenging of the DPPH radical [2] | Cellular levels of H2O2 [3] | EC50 (16HBE41o-cells; cells treated with 200 μM HOCl for 60 min in PBS, viability at 24 hours, MTT, read-out: EC50 of protection against HOCl-mediated cell death) [µM] | Protection against HOCl-mediated cell death (16HBE41o-cells) | Antioxidant activity (overall comparison) [4] | Scavenging of cellular reactive oxygen species [5] | Protection against HOCl-mediated cell death (16HBE41o-cells; listed as WT peptide) | Quenching of the ABTS radical [6] | Prevention of reperfusion-associated myocardial stunning [7]
1 | N=C(N)NCCC[C@@H](N)C(=O)N[C@@H](Cc1c[nH]c(=S)[nH]1)C(=O)N[C@@H](CCCCN)C(=O)N[C@@H](Cc1ccccc1)C(N)=O [RH8] | binds to CL equally well as SS31 | better at scavenging | better at scavenging the DPPH radical | significantly lower compared to the SS-31 peptide | 50 | protects strongly | significantly better antioxidant than the SS-31 peptide | – | – | – | –
2 | H-[dR][Dmt]KF-NH2 [SS-31] | – | – | – | – | – | did not protect against HOCl-mediated injury at all | – | scavenged cellular reactive oxygen species | did not show any protection | quenches the ABTS radical better | prevented reperfusion-associated myocardial stunning
